Data on one compound can be found in ChEMBL document CHEMBL4715805, “Structure-Activity Relationship for Sulfonamide Inhibition of Helicobacter pylori α-Carbonic Anhydrase” (J Med Chem, 2016).

A short description of this test: Inhibition of Helicobacter pylori alpha-carbonic anhydrase expressed in Escherichia coli assessed as inhibition constant preincubated for 15 mins prior to testing by phenol red-based stopped-flow CO2 hydration assay.

For the compound `Cn1nc(S(N)(=O)=O)s/c1=N/S(=O)(=O)c1ccc(C(C)(C)C)cc1`, the Ki worked out at 8.2 nM.
